Experimental data published in ChEMBL document CHEMBL5365481, “Design, Synthesis, and Activity Evaluation of Novel Dual-Target Inhibitors with Antifungal and Immunoregulatory Properties” (J Med Chem, 2023).
In brackets after ≈: the same amount, converted by molar mass.

Legend:
Format in all cases: functional
[1] = test system: Candida albicans; assay: Antifungal activity against Candida albicans ATCC SC5314 assessed as inhibition of fungal growth incubated for 72 hrs by CLSI based liquid medium microdilution method
[2] = test system: Cryptococcus neoformans; assay: Antifungal activity against Cryptococcus neoformans ZKCC 2209 assessed as inhibition of fungal growth incubated for 72 hrs by CLSI based liquid medium microdilution method
[3] = test system: Pichia kudriavzevii; assay: Antifungal activity against Candida krusei ATCC 6258 assessed as inhibition of fungal growth incubated for 72 hrs by CLSI based liquid medium microdilution method
[4] = test system: Candida tropicalis; assay: Antifungal activity against Candida tropicalis ATCC 1369 assessed as inhibition of fungal growth incubated for 72 hrs by CLSI based liquid medium microdilution method
[5] = test system: Aspergillus fumigatus; assay: Antifungal activity against Aspergillus fumigatus KM8001 assessed as inhibition of fungal growth incubated for 72 hrs by CLSI based liquid medium microdilution method

| SMILES | MIC50 [1] [µg/mL] | MIC50 [2] [µg/mL] | MIC50 [3] [µg/mL] | MIC50 [4] [µg/mL] | MIC50 [5] [µg/mL] |
| --- | --- | --- | --- | --- | --- |
| O=C(NCc1ccccc1)c1nc(-n2ccnc2)c2cc(Cl)ccc2n1 | 2 (≈ 5.5 µM) | 4 (≈ 11 µM) | 1 (≈ 2.75 µM) | 2 (≈ 5.5 µM) | 4 (≈ 11 µM) |
| O=C(NC1CCCc2ccccc21)c1nc(-n2ccnc2)c2cc(Cl)ccc2n1 (stereo not given) | > 8 | 2 (≈ 4.95 µM) | 4 (≈ 9.9 µM) | 4 (≈ 9.9 µM) | > 8 |
| O=C(NC1CCCc2ccccc21)c1nc(-n2cncn2)c2cc(Cl)ccc2n1 (stereo not given) | 2 (≈ 4.94 µM) | 2 (≈ 4.94 µM) | > 8 | 2 (≈ 4.94 µM) | > 8 |
| CS(=O)(=O)c1ccc(NC(=O)c2nc(-n3ccnc3)c3ccccc3n2)cc1 | 2 (≈ 5.08 µM) | 1 (≈ 2.54 µM) | 4 (≈ 10.2 µM) | 4 (≈ 10.2 µM) | > 8 |
| O=C(NC1CCN(C(=O)c2ccccc2)CC1)c1nc(-n2cncn2)c2ccccc2n1 | 1 (≈ 2.34 µM) | 2 (≈ 4.68 µM) | 1 (≈ 2.34 µM) | 1 (≈ 2.34 µM) | 4 (≈ 9.36 µM) |
| CC(C)c1ccc(C(=O)N2CCC(NC(=O)c3nc(-n4cncn4)c4ccccc4n3)CC2)cc1 | 0.5 (≈ 1.06 µM) | 2 (≈ 4.26 µM) | 0.5 (≈ 1.06 µM) | 1 (≈ 2.13 µM) | 4 (≈ 8.52 µM) |
| O=C(NCc1ccccc1)c1nc(-n2cncn2)c2ccccc2n1 | 2 (≈ 6.05 µM) | 2 (≈ 6.05 µM) | 4 (≈ 12.1 µM) | 1 (≈ 3.03 µM) | > 8 |
| CS(=O)(=O)c1ccc(NC(=O)c2nc(-n3cncn3)c3cc(Cl)ccc3n2)cc1 | 0.5 (≈ 1.17 µM) | 0.5 (≈ 1.17 µM) | 1 (≈ 2.33 µM) | 1 (≈ 2.33 µM) | 2 (≈ 4.66 µM) |
| O=C(NCc1ccccc1)c1nc(-n2ccnc2)c2ccccc2n1 | 2 (≈ 6.07 µM) | 4 (≈ 12.1 µM) | 1 (≈ 3.04 µM) | 2 (≈ 6.07 µM) | > 8 |
| CC(=O)c1ccc(NC(=O)c2nc(-n3cncn3)c3cc(Cl)ccc3n2)cc1 | 0.5 (≈ 1.27 µM) | 2 (≈ 5.09 µM) | 1 (≈ 2.55 µM) | 0.5 (≈ 1.27 µM) | 4 (≈ 10.2 µM) |
| O=C(NC1CCN(C(=O)c2ccccc2)CC1)c1nc(-n2ccnc2)c2ccccc2n1 | 1 (≈ 2.34 µM) | 2 (≈ 4.69 µM) | 2 (≈ 4.69 µM) | 1 (≈ 2.34 µM) | > 8 |
